From patent publication US4666934A, “Prostaglandin analogs” (The Upjohn Company, priority 1985, dated 1987)
Converted amounts (≈) assume the structure as drawn. Structures can show the parent of a compound that is named as a salt.

Assays:
Assay type in all cases: physicochemical
Solid-state stability = conditions: for Solid state stability (degradation): 2 months at 33° C., 87600 min; for Solid-state stability (visual observation): 75% R.H., 30°, same = as at day 0
Protocol: (§1) The solid-state stability studies were performed as follows. Approximately 10-15 mg of the free acid or a salt was placed in either clear glass vials or amber vials wrapped in aluminum foil and stored under various conditions as listed below:
(a) Refrigerated at about 4° C. (dark).
(b) High Intensity Light Box at about 33° C. and relative humidity <15%. (Light Box contained 6-15 watt fluorescent bulbs 41/2 inches above the powder surface.) Sample vials were placed on their sides with powder spread evenly on the vial wall.
(c) 30° C./75% relative humidity/dark-vials were capped loosely.
(§2) At various times, 1-1.5 mg samples were dissolved in methanol, diluted to a prescribed volume with water, and analyzed by high pressure liquid chromatography versus reference standard of the free acid stored at -20° C. Chromatographic conditions were similar to those described previously.

[1] = Trichlorotrifluoroethane solubility
Protocol: The solubility of the compounds in trichlorotrifluoroethane, a high molecular weight fluorochlorinated alkane liquid propellant, was determined as follows. Suspensions of each compound were prepared at concentrations of ~1 mg/ml in trichlorotrifluoroethane in 30 ml glass vials sealed using polytetrafluoroethylene lined caps. These vials were wrapped with aluminum foil and shaken at ~25° C. After 26 days shaking the samples were filtered. Three successive 5 ml fractions were collected from the filter and analyzed to test for adsorption. (No adsorption was observed.)
The 5 ml samples were transferred to 5 ml volumetric flasks and solvent was evaporated under nitrogen. The residue was redissolved in 1 ml methanol and diluted to 5 ml with 30% CH3 CN. Samples were assayed by high pressure liquid chromatography.

[2] = Characterizability (passes profile; moisture content after air equilibration); conditions: for Characterizability (passes profile): Table I
Water solubility = conditions: for Water solubility: in words
[3] = Stability suspended in trichlorotrifluoroethane; conditions: dark, 30°
Protocol: as §1
(d) Suspended in […] and shaken continuously for 26 days.
as §2

[4] = Specific gravity (volume displacement, pycnometer); conditions: 20° C., acetonitrile
Protocol: To obtain specific gravity data approximate densities were obtained using a volume displacement procedure. To a 5 ml weighed pycnometer was added 200-300 mg of salt and acetonitrile added to fill. The salt suspensions were sonicated to remove entrapped air and equilibrated to 20° C. in a water bath. The salt densities were estimated by standard methods of calculation.

## CCCCC[C@H](O)/C=C/[C@@H]1c2cc(CCCCC(=O)O)n(-c3ccccc3)c2C[C@H]1O [Potassium Salt, 6,9-Deepoxy-6,9-(phenylimino)-Δ6,8-prostaglandin I1, potassium salt]
Solid-state stability; potassium salt
  Solid state stability (degradation): < 2%
Solid-state stability; Dark, 4°, 0 days, potassium salt
  Solid-state stability: 100% of Theory
Solid-state stability; Dark, 33°, 0 days, potassium salt
  Solid-state stability: 100% of Theory
Solid-state stability; Dark, 33°, 19 days, potassium salt, 27360 min
  Solid-state stability: 100% of Theory
Solid-state stability; Dark, 33°, 40 days, potassium salt, 57600 min
  Solid-state stability: 100% of Theory
Solid-state stability; Dark, 33°, 66 days, potassium salt, 95040 min
  Solid-state stability: 100% of Theory
Solid-state stability; Dark, 33°, 289 days, potassium salt, 416160 min
  Solid-state stability: 96% of Theory
Solid-state stability; Dark, 33°, 405 days, potassium salt, 583200 min
  Solid-state stability: 96% of Theory
Solid-state stability; Dark, 19 days, potassium salt
  Solid-state stability (visual observation): glass
Solid-state stability; High intensity light, 33°, relative humidity <15%, 0 days, potassium salt
  Solid-state stability: 100% of Theory
Solid-state stability; High intensity light, 33°, relative humidity <15%, 19 days, potassium salt, 27360 min
  Solid-state stability: 48% of Theory
Solid-state stability; in words, over the free acid or the sodium salt
  Solid-state stability: improved solid-state stability over the free acid or the sodium salt
Solid-state stability; protected from light, 33°
  Rank order of stability: potassium salt>free acid>sodium salt
Solid-state stability; solid state, Dark, 4°, 66 days
  remaining at 1584 h: 102%
Solid-state stability; solid state, Dark, 4°, 189 days
  remaining at 4536 h: 101%
Solid-state stability; solid state, Dark, 33°, 100 days
  remaining at 2400 h: 97%
Solid-state stability; solid state, Dark, 33°, 216 days
  remaining at 5184 h: 98%
[1]; as compared to the free acid, in words
  Solubility in fluorinated and fluorochlorinated liquified propellants: low solubility in fluorinated and fluorochlorinated liquified propellants
[1]; ~25° C., 26 days shaking, potassium salt, 37440 min
  Trichlorotrifluoroethane solubility: 0.43 µg/mL
[2]; potassium salt
  Characterizability (passes profile): Pass
  moisture content after air equilibration: .42 % H2O
Water solubility; listed as potassium salt, potassium salt
  Water solubility: high water solubility
Water solubility; potassium salt
  Water solubility: Soluble
[3]; 26 days, potassium salt, 37440 min
  Stability in trichlorotrifluoroethane suspension: 100% of Theory
[4]; potassium salt
  Specific gravity: 1.20

## CCCCC[C@H](O)/C=C/[C@@H]1c2cc(CCCCC(=O)O)n(-c3ccccc3)c2C[C@H]1O [Sodium Salt, 6,9-Deepoxy-6,9-(phenylimino)-Δ6,8-prostaglandin I1, sodium salt]
Solid-state stability; sodium salt
  Solid state stability (degradation): > 50%
Solid-state stability; Dark, 4°, 0 days, sodium salt
  Solid-state stability: 101% of Theory
Solid-state stability; Dark, 33°, 0 days, sodium salt
  Solid-state stability: 101% of Theory
Solid-state stability; Dark, 33°, 19 days, sodium salt, 27360 min
  Solid-state stability: 61% of Theory
Solid-state stability; Dark, 19 days, sodium salt
  Solid-state stability (visual observation): same
Solid-state stability; High intensity light, 33°, relative humidity <15%, 0 days, sodium salt
  Solid-state stability: 101% of Theory
Solid-state stability; High intensity light, 33°, relative humidity <15%, 19 days, sodium salt, 27360 min
  Solid-state stability: 3% of Theory
Solid-state stability; solid state, Dark, 4°, 19 days
  remaining at 456 h: 87%
Solid-state stability; solid state, Dark, 4°, 46 days
  remaining at 1104 h: 77%
[2]; sodium salt
  Characterizability (passes profile): Initial analysis acceptable but later assays (HPLC) unacceptable
  moisture content after air equilibration: .82 % H2O
Water solubility; sodium salt
  Water solubility: Soluble
[4]; sodium salt
  Specific gravity: 1.18

## CCCCC[C@H](O)/C=C/[C@@H]1c2cc(CCCCC(=O)O)n(-c3ccccc3)c2C[C@H]1O [Free Acid, 6,9-deepoxy-6,9-(phenylimino)-Δ6,8-prostaglandin I1, reference compound]
Solid-state stability
  Solid state stability (degradation): > 10%
Solid-state stability; Dark, 33°, 0 days
  Solid-state stability: 100% of Theory
Solid-state stability; Dark, 33°, 19 days, 27360 min
  Solid-state stability: 98% of Theory
Solid-state stability; Dark, 33°, 189 days, 272160 min
  Solid-state stability: 65% of Theory
Solid-state stability; Dark, 33°, 289 days, 416160 min
  Solid-state stability: 46% of Theory
Solid-state stability; Dark, 33°, 405 days, 583200 min
  Solid-state stability: 19% of Theory
Solid-state stability; Dark, 19 days
  Solid-state stability (visual observation): same
Solid-state stability; High intensity light, 33°, relative humidity <15%, 0 days
  Solid-state stability: 100% of Theory
Solid-state stability; High intensity light, 33°, relative humidity <15%, 19 days, 27360 min
  Solid-state stability: 55% of Theory
Solid-state stability; solid state, Dark, 33°, 40 days
  remaining at 960 h: 94%
Solid-state stability; solid state, Dark, 33°, 66 days
  remaining at 1584 h: 89%
[1]; trichlorotrifluoroethane, organic solvent or mixture, ~25° C., 26 days shaking
  solubility at 624 h: 0.38 µg/mL (≈ 0.893 µM)
[2]
  Characterizability (passes profile): Pass
Water solubility; water, Table I, numeric
  solubility: 1 µg/mL (≈ 2.35 µM)
[3]; 0 days
  Stability in trichlorotrifluoroethane suspension: 100% of Theory
[3]; trichlorotrifluoroethane, 26 days, read-out: Stability in trichlorotrifluoroethane suspension
  remaining at 624 h: 94%
